Test results from PMC8800111 (The Journal of Biological Chemistry, 2021).

Experiments:
Type in all cases: cell-based
[1] = target: proteins of U3A human fibrosarcoma cells (4462 proteins detected) (Homo sapiens, UniProt Q9NU23); settings: protein LYRM2; U3A, 10 μM, 2 h
[2] = target: proteins of U3A human fibrosarcoma cells (4462 proteins detected) (Homo sapiens, UniProt Q14847); settings: protein LASP1, U3A cells
[3] = target: proteins of U3A human fibrosarcoma cells (4462 proteins detected) (Homo sapiens, UniProt O95059); settings: protein RPP14; soluble abundance after heat, U3A cells
[4] = target: proteins of U3A human fibrosarcoma cells (4462 proteins detected) (Homo sapiens, UniProt Q9NYJ1); settings: protein COA4; U3A cells
[5] = target: proteins of U3A human fibrosarcoma cells (4462 proteins detected) (Homo sapiens, UniProt P41214); settings: protein EIF2D; U3A cells
[6] = target: proteins of U3A human fibrosarcoma cells (4462 proteins detected) (Homo sapiens, UniProt P63173); settings: protein RPL38; U3A cells
[7] = target: proteins of U3A human fibrosarcoma cells (4462 proteins detected) (Homo sapiens, UniProt O00764); settings: protein PDXK, U3A cells
[8] = target: proteins of U3A human fibrosarcoma cells (4462 proteins detected) (Homo sapiens, UniProt Q9UHN1); settings: protein POLG2; soluble abundance after heat, U3A cells
[9] = target: proteins of U3A human fibrosarcoma cells (4462 proteins detected) (Homo sapiens, UniProt Q12893); settings: protein TMEM115; U3A, 10 μM, 2 h
[10] = target: proteins of U3A human fibrosarcoma cells (4462 proteins detected) (Homo sapiens, UniProt P27816); settings: protein MAP4, U3A cells
[11] = target: proteins of U3A human fibrosarcoma cells (4462 proteins detected) (Homo sapiens, UniProt Q15269); settings: protein PWP2; U3A cells
[12] = target: proteins of U3A human fibrosarcoma cells (4462 proteins detected) (Homo sapiens, UniProt Q9H7X7); settings: protein IFT22; U3A, 10 μM, 2 h
[13] = target: proteins of U3A human fibrosarcoma cells (4462 proteins detected) (Homo sapiens, UniProt P51659); settings: protein HSD17B4; U3A cells
[14] = target: proteins of U3A human fibrosarcoma cells (4462 proteins detected) (Homo sapiens, UniProt Q9BXS5); settings: protein AP1M1; U3A cells
[15] = target: proteins of U3A human fibrosarcoma cells (4462 proteins detected) (Homo sapiens, UniProt P26583); settings: protein HMGB2; U3A, 10 μM, 2 h
[16] = target: proteins of U3A human fibrosarcoma cells (4462 proteins detected) (Homo sapiens, UniProt Q969Z0); settings: protein TBRG4; U3A cells
[17] = target: proteins of U3A human fibrosarcoma cells (4462 proteins detected) (Homo sapiens, UniProt P30154); settings: protein PPP2R1B; soluble abundance after heat, U3A cells
[18] = target: proteins of U3A human fibrosarcoma cells (4462 proteins detected) (Homo sapiens, UniProt Q9Y6M5); settings: protein SLC30A1; U3A cells
[19] = target: proteins of U3A human fibrosarcoma cells (4462 proteins detected) (Homo sapiens, UniProt Q96T37); settings: protein RBM15; U3A cells
[20] = target: proteins of U3A human fibrosarcoma cells (4462 proteins detected) (Homo sapiens, UniProt P32320); settings: protein CDA, U3A cells
[21] = target: proteins of U3A human fibrosarcoma cells (4462 proteins detected) (Homo sapiens, UniProt P07948); settings: protein LYN; U3A cells
[22] = target: proteins of U3A human fibrosarcoma cells (4462 proteins detected) (Homo sapiens, UniProt P14649); settings: protein MYL6B, U3A cells
[23] = target: proteins of U3A human fibrosarcoma cells (4462 proteins detected) (Homo sapiens, UniProt Q9Y399); settings: protein MRPS2; U3A, 10 μM, 2 h
[24] = target: proteins of U3A human fibrosarcoma cells (4462 proteins detected) (Homo sapiens, UniProt Q9H4E7); settings: protein DEF6; U3A cells
[25] = target: proteins of U3A human fibrosarcoma cells (4462 proteins detected) (Homo sapiens, UniProt Q16763); settings: protein UBE2S; U3A, 10 μM, 2 h
[26] = target: proteins of U3A human fibrosarcoma cells (4462 proteins detected) (Homo sapiens, UniProt P78371); settings: protein CCT2; U3A cells
[27] = target: proteins of U3A human fibrosarcoma cells (4462 proteins detected) (Homo sapiens, UniProt Q9UIJ7); settings: protein AK3; U3A cells
[28] = target: proteins of U3A human fibrosarcoma cells (4462 proteins detected) (Homo sapiens, UniProt Q03188); settings: protein CENPC, U3A cells
[29] = target: proteins of U3A human fibrosarcoma cells (4462 proteins detected) (Homo sapiens, UniProt Q9H1B7); settings: protein IRF2BPL; soluble abundance after heat, U3A cells
[30] = target: proteins of U3A human fibrosarcoma cells (4462 proteins detected) (Homo sapiens, UniProt Q6P3W2); settings: protein DNAJC24; ZCSL3, U3A cells
Chain of proteins of U3A human fibrosarcoma cells (4462 proteins detected) (Homo sapiens, UniProt Q6P3W2) (Q6P3W2 whole entry): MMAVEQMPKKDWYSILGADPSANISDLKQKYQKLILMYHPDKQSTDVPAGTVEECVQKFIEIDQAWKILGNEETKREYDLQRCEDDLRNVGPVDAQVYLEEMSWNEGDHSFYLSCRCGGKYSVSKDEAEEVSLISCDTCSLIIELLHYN

Chain of proteins of U3A human fibrosarcoma cells (4462 proteins detected) (Homo sapiens, UniProt P32320) (P32320 whole entry): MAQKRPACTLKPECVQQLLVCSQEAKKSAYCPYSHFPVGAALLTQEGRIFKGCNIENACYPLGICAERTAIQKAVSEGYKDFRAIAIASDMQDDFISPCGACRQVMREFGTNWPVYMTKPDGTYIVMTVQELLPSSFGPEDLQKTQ
Chain of proteins of U3A human fibrosarcoma cells (4462 proteins detected) (Homo sapiens, UniProt Q12893) (Q12893 whole entry): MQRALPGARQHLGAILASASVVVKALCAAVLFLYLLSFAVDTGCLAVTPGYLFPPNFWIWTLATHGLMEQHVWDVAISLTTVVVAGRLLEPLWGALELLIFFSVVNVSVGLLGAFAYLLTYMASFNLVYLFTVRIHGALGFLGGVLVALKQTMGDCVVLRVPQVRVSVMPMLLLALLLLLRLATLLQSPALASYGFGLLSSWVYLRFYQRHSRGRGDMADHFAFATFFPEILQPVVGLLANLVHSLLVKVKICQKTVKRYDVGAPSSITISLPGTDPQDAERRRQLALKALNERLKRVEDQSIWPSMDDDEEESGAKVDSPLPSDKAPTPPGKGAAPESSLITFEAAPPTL
Chain of proteins of U3A human fibrosarcoma cells (4462 proteins detected) (Homo sapiens, UniProt P30154) (P30154 whole entry): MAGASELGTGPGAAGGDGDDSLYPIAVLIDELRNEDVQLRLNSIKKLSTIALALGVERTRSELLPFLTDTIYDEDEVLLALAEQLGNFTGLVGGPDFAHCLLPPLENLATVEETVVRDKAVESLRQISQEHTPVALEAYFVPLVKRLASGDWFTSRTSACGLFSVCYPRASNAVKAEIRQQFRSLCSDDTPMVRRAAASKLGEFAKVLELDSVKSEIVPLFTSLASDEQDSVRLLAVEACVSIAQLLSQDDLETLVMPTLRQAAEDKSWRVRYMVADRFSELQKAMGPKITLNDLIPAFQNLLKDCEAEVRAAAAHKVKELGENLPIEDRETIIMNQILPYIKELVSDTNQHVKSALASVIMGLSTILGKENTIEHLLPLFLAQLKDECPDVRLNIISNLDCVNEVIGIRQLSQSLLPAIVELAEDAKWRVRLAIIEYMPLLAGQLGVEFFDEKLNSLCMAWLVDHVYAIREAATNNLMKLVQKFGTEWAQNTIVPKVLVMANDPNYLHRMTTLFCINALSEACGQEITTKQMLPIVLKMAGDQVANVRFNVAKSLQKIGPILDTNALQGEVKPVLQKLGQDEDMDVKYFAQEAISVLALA
Chain of proteins of U3A human fibrosarcoma cells (4462 proteins detected) (Homo sapiens, UniProt O95059) (O95059 whole entry): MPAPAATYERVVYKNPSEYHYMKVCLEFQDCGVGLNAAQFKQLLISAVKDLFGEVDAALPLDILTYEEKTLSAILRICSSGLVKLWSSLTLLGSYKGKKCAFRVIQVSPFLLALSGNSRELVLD
Chain of proteins of U3A human fibrosarcoma cells (4462 proteins detected) (Homo sapiens, UniProt Q15269) (Q15269 whole entry): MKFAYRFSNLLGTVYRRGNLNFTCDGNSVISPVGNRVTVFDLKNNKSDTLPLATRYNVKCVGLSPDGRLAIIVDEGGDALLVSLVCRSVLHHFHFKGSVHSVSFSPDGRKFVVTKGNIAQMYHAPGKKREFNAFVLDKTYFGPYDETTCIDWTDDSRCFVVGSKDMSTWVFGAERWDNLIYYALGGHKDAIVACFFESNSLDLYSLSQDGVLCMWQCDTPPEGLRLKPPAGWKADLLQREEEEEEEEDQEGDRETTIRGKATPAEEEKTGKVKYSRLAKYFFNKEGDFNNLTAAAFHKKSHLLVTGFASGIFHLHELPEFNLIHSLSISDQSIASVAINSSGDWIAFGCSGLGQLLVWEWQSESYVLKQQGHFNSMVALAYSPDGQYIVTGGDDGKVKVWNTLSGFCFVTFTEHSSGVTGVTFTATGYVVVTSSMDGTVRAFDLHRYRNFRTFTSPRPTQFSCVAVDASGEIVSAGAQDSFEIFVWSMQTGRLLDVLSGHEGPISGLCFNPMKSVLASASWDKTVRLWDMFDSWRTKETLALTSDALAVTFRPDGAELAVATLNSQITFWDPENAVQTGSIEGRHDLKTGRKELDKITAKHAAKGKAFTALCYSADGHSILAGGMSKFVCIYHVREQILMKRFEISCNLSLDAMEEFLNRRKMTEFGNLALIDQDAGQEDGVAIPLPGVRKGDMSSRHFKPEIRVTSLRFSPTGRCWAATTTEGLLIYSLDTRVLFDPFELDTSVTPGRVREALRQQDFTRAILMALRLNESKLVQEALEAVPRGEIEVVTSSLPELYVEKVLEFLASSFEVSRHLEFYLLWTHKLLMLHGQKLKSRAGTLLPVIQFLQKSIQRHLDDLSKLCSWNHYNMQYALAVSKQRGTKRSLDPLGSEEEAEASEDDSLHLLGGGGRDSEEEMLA
Chain of proteins of U3A human fibrosarcoma cells (4462 proteins detected) (Homo sapiens, UniProt Q96T37) (Q96T37 whole entry): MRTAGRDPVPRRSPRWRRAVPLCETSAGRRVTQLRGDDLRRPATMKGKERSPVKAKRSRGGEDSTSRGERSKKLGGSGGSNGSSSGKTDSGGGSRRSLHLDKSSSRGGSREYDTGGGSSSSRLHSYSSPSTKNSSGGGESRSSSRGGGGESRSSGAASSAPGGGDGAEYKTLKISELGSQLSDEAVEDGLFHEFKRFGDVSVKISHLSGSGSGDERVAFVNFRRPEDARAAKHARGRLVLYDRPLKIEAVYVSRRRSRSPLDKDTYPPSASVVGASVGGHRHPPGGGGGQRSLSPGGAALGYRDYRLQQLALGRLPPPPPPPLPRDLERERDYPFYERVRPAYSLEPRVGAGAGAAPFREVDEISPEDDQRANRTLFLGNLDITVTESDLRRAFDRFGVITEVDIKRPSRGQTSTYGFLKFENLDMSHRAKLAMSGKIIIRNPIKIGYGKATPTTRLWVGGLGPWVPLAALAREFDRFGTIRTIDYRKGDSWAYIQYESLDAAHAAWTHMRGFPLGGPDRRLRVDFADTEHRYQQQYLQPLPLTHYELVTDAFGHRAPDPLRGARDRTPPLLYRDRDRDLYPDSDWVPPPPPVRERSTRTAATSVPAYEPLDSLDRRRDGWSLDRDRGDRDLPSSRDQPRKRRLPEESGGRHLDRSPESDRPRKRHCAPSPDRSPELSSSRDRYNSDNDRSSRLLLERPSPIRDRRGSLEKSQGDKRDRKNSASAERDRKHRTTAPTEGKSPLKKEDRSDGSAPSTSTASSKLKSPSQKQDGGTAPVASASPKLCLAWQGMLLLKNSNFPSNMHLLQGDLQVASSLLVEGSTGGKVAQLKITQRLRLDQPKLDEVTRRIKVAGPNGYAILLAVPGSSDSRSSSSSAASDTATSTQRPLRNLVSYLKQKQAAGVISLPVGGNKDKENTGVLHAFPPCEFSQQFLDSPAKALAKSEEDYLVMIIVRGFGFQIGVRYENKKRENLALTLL
Chain of proteins of U3A human fibrosarcoma cells (4462 proteins detected) (Homo sapiens, UniProt P07948) (P07948 whole entry): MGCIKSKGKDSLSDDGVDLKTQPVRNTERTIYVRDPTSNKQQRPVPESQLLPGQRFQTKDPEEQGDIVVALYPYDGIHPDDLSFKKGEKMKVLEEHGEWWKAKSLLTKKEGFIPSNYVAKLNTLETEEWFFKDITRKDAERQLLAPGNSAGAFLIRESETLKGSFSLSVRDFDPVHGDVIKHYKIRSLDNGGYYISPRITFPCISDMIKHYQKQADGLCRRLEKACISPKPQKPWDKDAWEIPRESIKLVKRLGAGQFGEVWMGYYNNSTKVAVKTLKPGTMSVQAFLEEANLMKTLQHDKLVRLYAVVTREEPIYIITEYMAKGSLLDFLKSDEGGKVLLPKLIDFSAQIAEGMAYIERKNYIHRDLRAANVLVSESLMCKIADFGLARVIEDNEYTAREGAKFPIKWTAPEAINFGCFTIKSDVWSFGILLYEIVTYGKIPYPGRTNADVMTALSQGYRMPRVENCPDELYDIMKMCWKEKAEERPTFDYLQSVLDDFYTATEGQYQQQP
Chain of proteins of U3A human fibrosarcoma cells (4462 proteins detected) (Homo sapiens, UniProt Q9NU23) (Q9NU23 20-88): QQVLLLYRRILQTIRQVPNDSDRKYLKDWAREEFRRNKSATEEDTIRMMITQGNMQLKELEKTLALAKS
Chain of proteins of U3A human fibrosarcoma cells (4462 proteins detected) (Homo sapiens, UniProt Q9NYJ1) (Q9NYJ1 whole entry): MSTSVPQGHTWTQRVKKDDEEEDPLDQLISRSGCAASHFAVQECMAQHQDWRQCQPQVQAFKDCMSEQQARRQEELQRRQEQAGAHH
Chain of proteins of U3A human fibrosarcoma cells (4462 proteins detected) (Homo sapiens, UniProt Q9UIJ7) (Q9UIJ7 whole entry): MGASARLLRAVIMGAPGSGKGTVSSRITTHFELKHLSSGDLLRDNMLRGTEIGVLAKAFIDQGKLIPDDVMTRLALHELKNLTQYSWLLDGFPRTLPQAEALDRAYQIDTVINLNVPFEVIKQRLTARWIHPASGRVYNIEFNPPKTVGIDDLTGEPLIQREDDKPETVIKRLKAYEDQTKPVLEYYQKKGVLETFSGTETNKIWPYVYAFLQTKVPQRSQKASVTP
Chain of proteins of U3A human fibrosarcoma cells (4462 proteins detected) (Homo sapiens, UniProt P26583) (P26583 whole entry): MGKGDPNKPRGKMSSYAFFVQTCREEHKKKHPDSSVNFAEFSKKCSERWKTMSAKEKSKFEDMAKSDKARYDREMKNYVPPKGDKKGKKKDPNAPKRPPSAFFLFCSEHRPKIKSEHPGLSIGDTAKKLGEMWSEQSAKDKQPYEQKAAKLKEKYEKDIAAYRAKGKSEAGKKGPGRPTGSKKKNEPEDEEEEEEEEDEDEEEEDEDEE
Chain of proteins of U3A human fibrosarcoma cells (4462 proteins detected) (Homo sapiens, UniProt P78371) (P78371 whole entry): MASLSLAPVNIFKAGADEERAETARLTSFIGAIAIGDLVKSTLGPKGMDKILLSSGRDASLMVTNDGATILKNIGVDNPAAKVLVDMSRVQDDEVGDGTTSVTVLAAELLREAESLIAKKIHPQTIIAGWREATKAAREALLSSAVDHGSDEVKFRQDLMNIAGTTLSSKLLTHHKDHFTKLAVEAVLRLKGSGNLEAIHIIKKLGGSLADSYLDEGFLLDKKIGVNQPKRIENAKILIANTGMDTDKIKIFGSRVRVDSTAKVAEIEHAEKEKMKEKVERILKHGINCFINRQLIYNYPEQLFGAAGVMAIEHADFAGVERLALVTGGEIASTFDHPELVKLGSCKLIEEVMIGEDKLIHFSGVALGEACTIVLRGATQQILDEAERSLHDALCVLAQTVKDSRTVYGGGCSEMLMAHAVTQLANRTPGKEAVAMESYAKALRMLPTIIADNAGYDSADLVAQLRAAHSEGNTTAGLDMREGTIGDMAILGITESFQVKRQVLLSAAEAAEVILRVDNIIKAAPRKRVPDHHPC

## CCc1nc(N)nc(N)c1-c1ccc(Cl)cc1 [pyrimethamine]
[1]
  Log2 (PYR/DMSO), LYRM2: 0.27
[2]
  Log2 (PYR/DMSO): -0.04
[3]
  Log2 (PYR/DMSO): 0.14
[4]
  Log2 (PYR/DMSO): 0.18
[5]
  Log2 (PYR/DMSO): 0.22
[6]
  Log2 (PYR/DMSO): 0.18
[7]
  Log2 (PYR/DMSO): -0.05
[8]
  Log2 (PYR/DMSO): 0.15
[9]
  Log2 (PYR/DMSO), TMEM115: 0.38
[10]
  Log2 (PYR/DMSO): -0.05
[11]
  Log2 (PYR/DMSO): 0.18
[12]
  Log2 (PYR/DMSO), IFT22: -0.16
[13]
  Log2 (PYR/DMSO): 0.17
[14]
  Log2 (PYR/DMSO): 0.17
[15]
  Log2 (PYR/DMSO), HMGB2: -0.14
[16]
  Log2 (PYR/DMSO): 0.19
[17]
  Log2 (PYR/DMSO): 0.15
[18]
  Log2 (PYR/DMSO): 0.16
[19]
  Log2 (PYR/DMSO): 0.17
[20]
  Log2 (PYR/DMSO): -0.04
[21]
  Log2 (PYR/DMSO): 0.16
[22]
  Log2 (PYR/DMSO): -0.04
[23]
  Log2 (PYR/DMSO), MRPS2: 0.25
[24]
  Log2 (PYR/DMSO): 0.22
[25]
  Log2 (PYR/DMSO), UBE2S: 0.25
[26]
  Log2 (PYR/DMSO): 0.17
[27]
  Log2 (PYR/DMSO): 0.16
[28]
  Log2 (PYR/DMSO): -0.04
[29]
  Log2 (PYR/DMSO): 0.14
[30]
  Log2 (PYR/DMSO): -0.04
